Source: patent US20160115540A1, “PRODRUGS AND DRUGS” (Biogen MA Inc., priority 2013, published 2016)
Counter-ions that a name gives are not always drawn.

Tested on: kidney
Experiment: Transcriptional profiling on Affymetrix GeneChips, single dose, naïve mice: kidney
Format: in vivo, C57BL/6 mice
Details: 100MMF-vs-Veh
Description: Treated mice were sacrificed at 2, 7, or 12 hours. Tissues (liver, spleen, kidney, jejunum, cortex, hippocampus, striatum and whole blood) were collected and analyzed by transcriptional profiling on mouse Affymetrix GeneChips.
Tissues (liver, spleen, kidney, jejunum, cortex, hippocampus, striatum and whole blood) were collected and analyzed by transcriptional profiling on mouse Affymetrix GeneChips.
Animals were exposed to CO2 and whole blood collected via cardiac puncture. Two 100 μl aliquots of whole blood were collected in 1.5 mL microcentrifuge tubes and snap frozen in liquid nitrogen. Peripheral (liver, spleen, kidney and jejunum) and CNS brain (cerebellum, hippocampus, striatum and cortex) tissues were harvested and snap frozen in liquid nitrogen, with special care taken to collect tissues of similar size and from the same location. All samples were stored at −80° C. until RNA extraction was conducted.
For RNA preparation, frozen tissues were placed in 2 mL RNAse-free 96-well blocks with 1.5 mL QIAzol Lysis Reagent (QIAgen) and a 3.2 mm stainless steel bead (BioSpec Products, Bartlesville, Okla.). Tissues were disrupted for four cycles of 45 seconds in a Mini-Beadbeater (Biospec Products). RNA was extracted in chloroform and the aqueous phase was mixed with an equal volume of 70% ethanol. Extracted RNA was applied to RNeasy 96 plates and purified by the spin method according to the manufacturer's protocol (RNeasy 96 Universal Tissue Protocol, QIAgen, Hilden Germany).
Automated sample amplifications and biotin labelings were carried out using the NuGEN Ovation RNA Amplification system V2 (Cat #3100), Ovation WB reagent (Cat #1300) and Encore Biotin module (Cat #4200) (NuGEN Technologies, Inc, San Carlos, Calif.) according to manufacturer's recommendations using an Arrayplex automated liquid handler (Beckman Coulter, Indianapolis, Ind.). Two micrograms of biotin labeled sscDNA probe were hybridized to Affymetrix GeneChip Affymetrix HT_MG-430_PM plate arrays with modified conditions as described in Allaire et al. Washing and staining of the hybridized arrays were completed as described in the GeneChip Expression analysis technical manual for HT plate arrays using the Genechip® Array Station (Affymetrix, Santa Clara, Calif.) with modifications as described in Allaire et al. The processed GeneChip® plate arrays were scanned using GeneTitan scanner (Affymetrix, Santa Clara, Calif.).
Affymetrix scans were subject to quality control (QC) measures. These tests included a visual inspection of the distribution of raw signal intensities and an assessment of RNA degradation, relative log expression (RLE), and normalized unsealed standard error (NUSE). All sample scans that passed these QC metrics were included in the analysis.
All CEL files were subjected to GC-content-based Robust Multi-array Average (GCRMA) normalization (version 2.20.0) (Irizarry R A, et al. Nucleic Acids Res 2003; 31:e15; Li C, et al. Genome Biol 2001; 2:[…]0032). Expression levels were log (base 2) transformed.
All calculations and analyses were carried out using R (version 2.11.1) and Bioconductor computational tools (Gentleman R. Springer Science+Business Media 2005).

## COC(=O)/C=C/C(=O)O [MMF, monomethyl fumarate]
2 h
  FC 1456319_PM_at: −2.06
  FC 1456955_PM_at: 1.60
  FC 1457189_PM_at: −1.70
  FC 1457586_PM_at: 1.61
  FC 1458096_PM_at: −1.87
  FC 1458798_PM_at: −1.56
  FC 1459091_PM_at: 2.78
  FC 1459358_PM_at: 1.56
  FC 1459516_PM_at: 1.71
  FC 1459774_PM_at: 1.63
  FC A330023F24Rik 1460033_PM_at: 1.50
  FC AA986715 1459467_PM_at: 1.68
  FC Akr1c19 (1455454_PM_at): 1.56
  FC Ankrd11 1458452_PM_at: 1.56
  FC Arl5b 1455166_PM_at: 1.64
  FC BC038331 1458295_PM_at: −1.57
  FC Bcl7a 1458503_PM_at: −1.54
  FC Cggbp1 1455658_PM_at: 1.51
  FC Gclc (1455959_PM_s_at): 1.53
  FC LOC676974 1456909_PM_at: 1.57
  FC LOC100504796 1457129_PM_at: −1.55
  FC Lonrf1 1455665_PM_at: 1.98
  FC Nufip2 1455387_PM_at: 1.61
  FC Per3 1458176_PM_at: −1.57
  FC Phf13 1455175_PM_at: 1.51
  FC Pkp2 1460511_PM_at: 1.67
  FC Ptprg 1456070_PM_at: −2.31
  FC Snx29 1456922_PM_at: −1.74
  FC Tnfsf10 1459913_PM_at: −1.60
  FC Trib3 1456225_PM_x_at: 1.56
  FC Zfp295 1457552_PM_at: 1.74
7 h
  FC 1110032F04Rik 1456509_PM_at: 4.65
  FC 1200003I10Rik /// 1200015M12Rik /// A130040M12Rik /// E430024C06Rik 1427932_PM_s_at: 1.63
  FC 1300002K09Rik 1453234_PM_at: 1.98
  FC 1444265_PM_at: 1.53
  FC 1445668_PM_at: 1.55
  FC 1447396_PM_at: −1.73
  FC 1457594_PM_at: −1.52
  FC 1459091_PM_at: 3.52
  FC 2610034E01Rik 1460483_PM_at: 1.56
  FC Abcc4 1443870_PM_at: 2.09
  FC Abhd15 1453474_PM_at: 1.64
  FC Acsl4 1451828_PM_a_at: 1.78
  FC Agps 1434919_PM_at: −1.68
  FC Agxt2l1 1452975_PM_at: −1.74
  FC Akr1b8 (1448894_PM_at): 1.86
  FC Akr1c19 (1455454_PM_at): 1.97
  FC Alas1 1424126_PM_at: 1.51
  FC Alcam 1426300_PM_at: 2.66
  FC Alcam 1426301_PM_at: 2.09
  FC Alcam 1437467_PM_at: 2.00
  FC Aldh1a7 (1418601_PM_at): 2.16
  FC Aox1 (1419435_PM_at): 2.50
  FC Asns 1433966_PM_x_at: 2.13
  FC Asns 1451095_PM_at: 2.23
  FC Atp13a3 1442145_PM_at: 1.52
  FC BC037032 1444682_PM_at: 1.69
  FC Bcat1 1430111_PM_a_at: −1.59
  FC Bcat1 1450871_PM_a_at: −1.83
  FC Bcat1 1455699_PM_at: −2.29
  FC Blvrb (1451386_PM_at): 1.83
  FC Btg1 1442018_PM_at: 1.60
  FC Cbr1 (1460196_PM_at): 1.58
  FC Cbr3 (1427912_PM_at): 9.54
  FC Cenpe 1435005_PM_at: −1.60
  FC Cml3 1421609_PM_a_at: −1.64
  FC Copg2as2 1427123_PM_s_at: 1.56
  FC Ctps 1416563_PM_at: 1.57
  FC Cul9 1439866_PM_at: −1.52
  FC Cyp51 1422533_PM_at: −1.54
  FC Cyp51 1422534_PM_at: −1.59
  FC D16Ertd778e 1445089_PM_at: −1.87
  FC D330040H18Rik 1444432_PM_at: 1.77
  FC Dbp (1418174_PM_at): −1.73
  FC Dbp (1438211_PM_s_at): −1.63
  FC Ddit4l 1439332_PM_at: 1.83
  FC Ddit4l 1444139_PM_at: 1.85
  FC Ddit4l 1451751_PM_at: 2.62
  FC Dnase2a (1430135_PM_at): 2.20
  FC Dusp5 1437199_PM_at: 1.74
  FC Eif4ebp1 1434976_PM_x_at: 1.56
  FC Endou 1449937_PM_at: 1.52
  FC Esr1 1460591_PM_at: −1.54
  FC Fam107a 1435918_PM_at: −1.77
  FC Fbxl2 1428427_PM_at: −1.68
  FC Fgf1 1441042_PM_at: −1.71
  FC Fgf1 1450869_PM_at: −1.76
  FC Fgfbp1 1419086_PM_at: 1.73
  FC Frem2 1457038_PM_at: −1.66
  FC G0s2 1448700_PM_at: 1.50
  FC G6pd2 /// G6pdx 1422327_PM_s_at: 1.86
  FC G6pdx (1448354_PM_at): 1.75
  FC Gclc (1424296_PM_at): 1.87
  FC Gclc (1455959_PM_s_at): 1.81
  FC Gclm 1418627_PM_at: 1.64
  FC Gdf15 1418949_PM_at: 1.98
  FC Gimap3 1449220_PM_at: −1.51
  FC Gjb1 1448766_PM_at: 1.50
  FC Gk5 1436210_PM_at: 1.55
  FC Gm129 1435188_PM_at: −2.12
  FC Gm3776 /// Gsta1 /// Gsta2 1421041_PM_s_at: 1.63
  FC Gpr135 1441944_PM_s_at: 1.66
  FC Gpr135 1459274_PM_at: 1.53
